{"source": "patent US5326766A", "about": "“4-(2-(4-(2-pyridinyloxy)phenyl)ethoxy)quinazoline and analogues thereof” (priority 1992, dated 1994)", "key": {"[1]": {"tested_on": "Pyricularia oryzae (rice blast)", "assay": "whole plant or invertebrate", "type": "in vivo", "conditions": "Pyricularia oryzae, foliar, read-out: PYRIOR disease control, host rice; foliar spray; 400 ppm (+++: 100 ppm)"}, "[2]": {"tested_on": "Plasmopara viticola (downy mildew)", "assay": "Foliar spray fungicide test, Plasmopara viticola (downy mildew) on grape", "conditions": "for pest or weed control at 400 µg/mL: Plasmopara viticola, foliar, read-out: PLASVI disease control", "protocol": "(§1) The test compounds were formulated for application by dissolving 50 mg of the compound into 1.25 ml of solvent. The solvent was prepared by mixing 50 ml of \"Tween 20\" (polyoxyethylene (20) sorbitan monolaurate emulsifier) with 475 ml of acetone and 475 ml of ethanol. The solvent/compound solution was diluted to 125 ml with deionized water. The resulting formulation contains 400 ppm test chemical. Lower concentrations were obtained by serial dilution with the solvent-surfactant mixture.\n(§2) The formulated test compounds were applied by foliar spray.\n(§3) The formulated technical compounds were sprayed on all foliar surfaces of the host plants to past run-off. Single pots of each host plant were placed on raised, revolving pedestals in a fume hood. Test solutions were sprayed on all foliar surfaces. All treatments were allowed to dry and the plants were inoculated with the appropriate pathogens within 24 hours.\n(§4) The effectiveness of test compounds in controlling disease was rated using the following scale."}, "[3]": {"tested_on": "Leptosphaeria nodorum (glume blotch)", "assay": "Foliar spray fungicide test, Leptosphaeria nodorum (glume blotch) on wheat", "conditions": "Parastagonospora nodorum, in Triticum aestivum, foliar, read-out: LETPNO disease control, host wheat, 400 ppm (+++: 100 ppm)", "protocol": "as §1, §2, §3, §4"}, "[4]": {"tested_on": "Puccinia recondita tritici (leaf rust)", "assay": "Foliar spray fungicide test, Puccinia recondita tritici (leaf rust) on wheat", "conditions": "Puccinia recondita, in Triticum aestivum, foliar, read-out: PUCCRT disease control, host wheat, 400 ppm (+++: 100 ppm)", "protocol": "as §1\n(§5) The formulated test compounds were applied by foliar spray. The following plant pathogens and their corresponding plants were employed.\nPuccinia recondita PUCCRT wheat\nas §3, §4"}, "[5]": {"tested_on": "Erysiphe graminis tritici (powdery mildew)", "assay": "Foliar spray fungicide test, Erysiphe graminis tritici (powdery mildew) on wheat", "conditions": "Blumeria graminis, in Triticum aestivum, foliar, read-out: ERYSGT disease control, host wheat, 400 ppm (+++: 100 ppm)", "protocol": "as §1, §5, §3, §4"}}, "data": [{"compound": "FC(F)(F)c1cnc(Oc2ccc(CCNc3ncnc4cccnc34)cc2)c(Cl)c1", "note": "[Compound 2]", "values": [{"measurement": "pest or weed control at 400 µg/mL", "setting": "[1]", "value": "90 to 100", "unit": "%"}, {"measurement": "pest or weed control at 400 µg/mL", "setting": "[2]", "value": "90 to 100", "unit": "%"}, {"measurement": "pest or weed control at 400 µg/mL", "setting": "[3]", "value": "20 to 89", "unit": "%"}, {"measurement": "pest or weed control at 400 µg/mL", "setting": "[4]", "value": "90 to 100", "unit": "%"}, {"measurement": "pest or weed control at 400 µg/mL", "setting": "[5]", "value": "90 to 100", "unit": "%"}]}, {"compound": "N#Cc1cccnc1Oc1ccc(CCOc2ncnc3c(F)cccc23)cc1", "note": "[Compound 3]", "values": [{"measurement": "pest or weed control at 400 µg/mL", "setting": "[1]", "value": "20 to 89", "unit": "%"}, {"measurement": "pest or weed control at 400 µg/mL", "setting": "[2]", "value": "90 to 100", "unit": "%"}, {"measurement": "pest or weed control at 400 µg/mL", "setting": "[3]", "value": "20 to 89", "unit": "%"}, {"measurement": "pest or weed control at 400 µg/mL", "setting": "[4]", "value": "20 to 89", "unit": "%"}, {"measurement": "pest or weed control at 400 µg/mL", "setting": "[5]", "value": "20 to 89", "unit": "%"}]}, {"compound": "N#Cc1cccnc1Oc1ccc(CCOc2ncnc3cccc(F)c23)cc1", "note": "[Compound 4]", "values": [{"measurement": "pest or weed control at 400 µg/mL", "setting": "[1]", "value": "0 to 19", "unit": "%"}, {"measurement": "pest or weed control at 400 µg/mL", "setting": "[2]", "value": "20 to 89", "unit": "%"}, {"measurement": "pest or weed control at 400 µg/mL", "setting": "[3]", "value": "0 to 19", "unit": "%"}, {"measurement": "pest or weed control at 400 µg/mL", "setting": "[4]", "value": "0 to 19", "unit": "%"}, {"measurement": "pest or weed control at 400 µg/mL", "setting": "[5]", "value": "20 to 89", "unit": "%"}]}, {"compound": "O=[N+]([O-])c1cccnc1Oc1ccc(CCOc2ncnc3c(F)cccc23)cc1", "note": "[Compound 8]", "values": [{"measurement": "pest or weed control at 400 µg/mL", "setting": "[1]", "value": "20 to 89", "unit": "%"}, {"measurement": "pest or weed control at 400 µg/mL", "setting": "[2]", "value": "90 to 100", "unit": "%"}, {"measurement": "pest or weed control at 400 µg/mL", "setting": "[3]", "value": "20 to 89", "unit": "%"}, {"measurement": "pest or weed control at 400 µg/mL", "setting": "[4]", "value": "20 to 89", "unit": "%"}, {"measurement": "pest or weed control at 400 µg/mL", "setting": "[5]", "value": "90 to 100", "unit": "%"}]}, {"compound": "O=[N+]([O-])c1cccnc1Oc1ccc(CCOc2ncnc3cccc(F)c23)cc1", "note": "[Compound 9]", "values": [{"measurement": "pest or weed control at 400 µg/mL", "setting": "[1]", "value": "0 to 19", "unit": "%"}, {"measurement": "pest or weed control at 400 µg/mL", "setting": "[2]", "value": "90 to 100", "unit": "%"}, {"measurement": "pest or weed control at 400 µg/mL", "setting": "[3]", "value": "0 to 19", "unit": "%"}, {"measurement": "pest or weed control at 400 µg/mL", "setting": "[4]", "value": "0 to 19", "unit": "%"}, {"measurement": "pest or weed control at 400 µg/mL", "setting": "[5]", "value": "0 to 19", "unit": "%"}]}, {"compound": "Fc1cccc2c(OCCc3ccc(Oc4ncccc4C(F)(F)F)cc3)ncnc12", "note": "[Compound 10]", "values": [{"measurement": "pest or weed control at 400 µg/mL", "setting": "[1]", "value": "90 to 100", "unit": "%"}, {"measurement": "pest or weed control at 400 µg/mL", "setting": "[2]", "value": "90 to 100", "unit": "%"}, {"measurement": "pest or weed control at 400 µg/mL", "setting": "[3]", "value": "90 to 100", "unit": "%"}, {"measurement": "pest or weed control at 400 µg/mL", "setting": "[4]", "value": "90 to 100", "unit": "%"}, {"measurement": "pest or weed control at 400 µg/mL", "setting": "[5]", "value": "90 to 100", "unit": "%"}]}, {"compound": "Fc1cccc2c(NCCc3ccc(Oc4ncccc4C(F)(F)F)cc3)ncnc12", "note": "[Compound 11]", "values": [{"measurement": "pest or weed control at 400 µg/mL", "setting": "[1]", "value": "90 to 100", "unit": "%"}, {"measurement": "PLASVI disease control", "setting": "[2]; host grape, foliar spray, 400 ppm (+++: 100 ppm)", "value": "+ ++"}, {"measurement": "pest or weed control at 400 µg/mL", "setting": "[3]", "value": "90 to 100", "unit": "%"}, {"measurement": "pest or weed control at 400 µg/mL", "setting": "[4]", "value": "90 to 100", "unit": "%"}, {"measurement": "pest or weed control at 400 µg/mL", "setting": "[5]", "value": "90 to 100", "unit": "%"}]}, {"compound": "Fc1cccc2c(NCCc3ccc(Oc4cc(C(F)(F)F)ccn4)cc3)ncnc12", "note": "[Compound 14]", "values": [{"measurement": "pest or weed control at 400 µg/mL", "setting": "[1]", "value": "90 to 100", "unit": "%"}, {"measurement": "pest or weed control at 400 µg/mL", "setting": "[2]", "value": "90 to 100", "unit": "%"}, {"measurement": "pest or weed control at 400 µg/mL", "setting": "[3]", "value": "20 to 89", "unit": "%"}, {"measurement": "pest or weed control at 400 µg/mL", "setting": "[4]", "value": "90 to 100", "unit": "%"}, {"measurement": "pest or weed control at 400 µg/mL", "setting": "[5]", "value": "90 to 100", "unit": "%"}]}, {"compound": "Fc1cccc2c(OCCc3ccc(Oc4ccc(Cl)cn4)cc3)ncnc12", "note": "[Compound 17]", "values": [{"measurement": "pest or weed control at 400 µg/mL", "setting": "[1]", "value": "90 to 100", "unit": "%"}, {"measurement": "pest or weed control at 400 µg/mL", "setting": "[2]", "value": "90 to 100", "unit": "%"}, {"measurement": "pest or weed control at 400 µg/mL", "setting": "[3]", "value": "20 to 89", "unit": "%"}, {"measurement": "pest or weed control at 400 µg/mL", "setting": "[4]", "value": "90 to 100", "unit": "%"}, {"measurement": "pest or weed control at 400 µg/mL", "setting": "[5]", "value": "90 to 100", "unit": "%"}]}, {"compound": "O=[N+]([O-])c1ccc(Oc2ccc(CCNc3ncnc4c(F)cccc34)cc2)nc1", "note": "[Compound 24]", "values": [{"measurement": "pest or weed control at 400 µg/mL", "setting": "[1]", "value": "20 to 89", "unit": "%"}, {"measurement": "pest or weed control at 400 µg/mL", "setting": "[2]", "value": "90 to 100", "unit": "%"}, {"measurement": "pest or weed control at 400 µg/mL", "setting": "[3]", "value": "20 to 89", "unit": "%"}, {"measurement": "pest or weed control at 400 µg/mL", "setting": "[4]", "value": "20 to 89", "unit": "%"}, {"measurement": "pest or weed control at 400 µg/mL", "setting": "[5]", "value": "0 to 19", "unit": "%"}]}, {"compound": "FC(F)(F)c1ccc(Oc2ccc(CCOc3ncnc4ncccc34)cc2)nc1", "note": "[Compound 30]", "values": [{"measurement": "pest or weed control at 400 µg/mL", "setting": "[1]", "value": "90 to 100", "unit": "%"}, {"measurement": "pest or weed control at 400 µg/mL", "setting": "[2]", "value": "90 to 100", "unit": "%"}, {"measurement": "pest or weed control at 400 µg/mL", "setting": "[3]", "value": "0 to 19", "unit": "%"}, {"measurement": "pest or weed control at 400 µg/mL", "setting": "[4]", "value": "90 to 100", "unit": "%"}, {"measurement": "pest or weed control at 400 µg/mL", "setting": "[5]", "value": "90 to 100", "unit": "%"}]}, {"compound": "FC(F)(F)c1ccc(Oc2ccc(CCNc3ncnc4ncccc34)cc2)nc1", "note": "[Compound 31]", "values": [{"measurement": "pest or weed control at 400 µg/mL", "setting": "[1]", "value": "20 to 89", "unit": "%"}, {"measurement": "pest or weed control at 400 µg/mL", "setting": "[2]", "value": "90 to 100", "unit": "%"}, {"measurement": "pest or weed control at 400 µg/mL", "setting": "[3]", "value": "20 to 89", "unit": "%"}, {"measurement": "pest or weed control at 400 µg/mL", "setting": "[4]", "value": "90 to 100", "unit": "%"}, {"measurement": "pest or weed control at 400 µg/mL", "setting": "[5]", "value": "20 to 89", "unit": "%"}]}, {"compound": "FC(F)(F)c1ccc(Oc2ccc(CCNc3ncnc4cccnc34)cc2)nc1", "note": "[Compound 32]", "values": [{"measurement": "pest or weed control at 400 µg/mL", "setting": "[1]", "value": "90 to 100", "unit": "%"}, {"measurement": "pest or weed control at 400 µg/mL", "setting": "[2]", "value": "90 to 100", "unit": "%"}, {"measurement": "pest or weed control at 400 µg/mL", "setting": "[3]", "value": "90 to 100", "unit": "%"}, {"measurement": "pest or weed control at 400 µg/mL", "setting": "[4]", "value": "90 to 100", "unit": "%"}, {"measurement": "pest or weed control at 400 µg/mL", "setting": "[5]", "value": "90 to 100", "unit": "%"}]}, {"compound": "Clc1cnc(Oc2ccc(CCOc3ncnc4ccccc34)cc2)nc1", "note": "[Compound 47]", "values": [{"measurement": "pest or weed control at 400 µg/mL", "setting": "[1]", "value": "20 to 89", "unit": "%"}, {"measurement": "pest or weed control at 400 µg/mL", "setting": "[2]", "value": "20 to 89", "unit": "%"}, {"measurement": "pest or weed control at 400 µg/mL", "setting": "[3]", "value": "0 to 19", "unit": "%"}, {"measurement": "pest or weed control at 400 µg/mL", "setting": "[5]", "value": "90 to 100", "unit": "%"}]}, {"compound": "Fc1cccc2c(OCCc3ccc(Oc4ncc(Cl)cn4)cc3)ccnc12", "note": "[Compound 48]", "values": [{"measurement": "pest or weed control at 400 µg/mL", "setting": "[1]", "value": "0 to 19", "unit": "%"}, {"measurement": "pest or weed control at 400 µg/mL", "setting": "[2]", "value": "20 to 89", "unit": "%"}, {"measurement": "pest or weed control at 400 µg/mL", "setting": "[3]", "value": "0 to 19", "unit": "%"}, {"measurement": "pest or weed control at 400 µg/mL", "setting": "[5]", "value": "20 to 89", "unit": "%"}]}]}
